From paper PMC5365662, “A Short Double-Stapled Peptide Inhibits Respiratory Syncytial Virus Entry and Spreading” (Antimicrobial Agents and Chemotherapy, 2017)
Bridge positions count the residues as written; N and C are the ends. Square brackets hold non-standard residues; d marks the D form. Peptide text beside a SMILES is read from it. R8 = C=CCCCCCC[C@@](C)(N)C(=O)O; S5 = C=CCCC[C@](C)(N)C(=O)O

How the values were obtained:
[1] = circular dichroism; settings: 10 mM phosphate; pH 7.5; 25 °C; 50 uM
[2] = target: 5HB, a recombinant protein containing 3 HR1 domains covalently attached to 2 HR2 domains; settings: competition with fluorescently labeled T108 probe (2 nM), 5HB 50 nM, 10 min preincubation + 30 min room temperature, duplicates
From the text: The RSV HR2 region (residues 476 to 524) is a 49-amino-acid sequence that has been extensively characterized (Fig. 1). HR2 is a largely unstructured peptide in aqueous solution folding into an α-helix upon binding to trimeric HR1 coiled coils ([20]). […] We reduced HR2 (aa 483 to 516) into three short overlapping subdomains (subdomains 1 to 3) (Fig. 1). These peptides were scanned for various stapling combinations. […] Far-UV circular dichroism (CD) spectropolarimetry was used to investigate the effect of stapling on the α-helical content of the peptides. […] To assess the propensity of the stapled peptides to hinder the formation of the postfusion six-helix bundle required for viral cell entry, we used a 5-helix bundle (5HB) biochemical fluorescence polarization (FP) competition assay as previously described ([21], [22]).
The coding sequence of 5HB was designed as described previously and de novo synthesized by Genscript ([21]). The HR1 (aa 126 to 182) and HR2 (aa 476 to 524) coding sequences from wild-type RSV A2 strain F ([36]) were codon optimized for overexpression in Escherichia coli and cloned at NdeI/BamHI restriction sites of pET-15b to generate the expression plasmid for 5HB. The 5HB expression construct was transformed into Escherichia coli BL21(DE3). Cells were grown at 37°C to an optical density at 600 nm of 0.8 followed by induction with isopropyl-1-thio-β-D-galactopyranoside at a final concentration of 0.5 mM for 12 to 15 h. Cells were harvested by centrifugation, washed twice with PBS, and resuspended in 20 ml of PBS (pH 7.4), 500 mM NaCl, and 1% Triton X-100 supplemented with complete protease inhibitor. Cell suspensions were disrupted by sonication. Cell debris was removed through ultracentrifugation at 18,000 × g for 1 h at 4°C, and clarified cell lysate was mixed with 1 ml of nickel-nitrilotriacetic acid (Ni-NTA) agarose beads (Qiagen) preequilibrated with 20 ml of lysis buffer. The suspension was agitated for 1 h at 4°C and loaded onto a 5-ml polypropylene column (Qiagen). The column was washed twice with 8 ml of PBS (pH 7.4), 500 mM NaCl, 1% Triton X-100, and 100 mM imidazole. Proteins were eluted with 5 × 500 μl of a buffer containing PBS (pH 7.4), 300 mM imidazole, and 500 mM NaCl. The imidazole was removed by dialysis, and protein purity was assessed by SDS-polyacrylamide gel electrophoresis followed by Coomassie blue staining. Protein concentration was determined with the Qubit 2.0 Fluorometer (Life Technologies).
The T108 ([12]) peptide probe was synthesized by standard SPPS procedures using HCTU as a coupling reagent as described above. A 10-μl volume of recombinant 5HB protein in FP buffer (20 mM PBS [pH 7.4], 500 mM NaCl, 0.01% [vol/vol] Tween 20, and 0.05 mg/ml bovine gamma globulin) was preincubated for 10 min at room temperature with 10 μl of the appropriate concentration of the inhibitor, after which 10 μl of fluorescein isothiocyanate (FITC)-T106 was added and further incubated for 30 min at room temperature. The final concentrations of protein and probe were 50 nM and 2 nM, respectively. The fluorescence polarization assay was performed in 384-well plates using a Spectramax Paradigm (Molecular Devices), using excitation and emission wavelengths of 485 nm and 535 nm, respectively. The acquisition time was 700 ms, and the read height was 1 mm. All experiments were performed in duplicate. […] In order to ensure robust fitting for some fits, r0 was kept constant at the value measured for the free tracer in buffer.

[3] = tested on: rHRSV-mCherry in HEp-2 cells; assay: rHRSV-mCherry inhibition assay; format: cell-based, human respiratory syncytial virus; settings: Table 3 (Ala scan); HEp-2 cells, rHRSV-mCherry MOI 0.2, 2-fold serial dilutions (11 dilutions), duplicate; ± SD of fit
Experimental: To measure the inhibitory activity of the peptide, the mCherry red fluorescence was quantified 48 h postinfection (p.i.).
Viral replication was quantified by measuring the mCherry fluorescence at 48 h p.i. and normalized based on the fluorescence of infected and untreated cells. (B) Cytotoxicity assay. HEp-2 cells were incubated in the presence of serial dilutions of peptides, and cell survival was quantified using the CellTiter-Glo Luminescent cell viability assay 24 h after the addition of the peptides. The signal was normalized based on the luminescence obtained for untreated cells. Error bars are standard deviations from duplicates.
HEp-2 cells were seeded at 5 × 10^4 cells per well in a 96-well plate the day before the infection. Peptides were 2-fold serially diluted in dimethyl sulfoxide (DMSO) (11 dilutions) and then further diluted in EMEM without phenol red and preincubated for 15 to 20 min with rHRSV-mCherry ([24]) at a final dilution with an MOI of 0.2 ([24]). The cells were incubated with the virus-peptide mixtures for a period of 1.5 to 2 h. The medium was then replaced by EMEM without phenol red containing 2% fetal bovine serum and the same concentration of peptide as the one that was used during the infection step. Plates were incubated 48 h at 37°C, and the mCherry fluorescence was measured using a spectrofluorometer (Tecan infinite M200PRO) with excitation and emission wavelengths of 580 and 620 nm, respectively. Relative fluorescence was normalized by the fluorescence of nontreated infected cells. Noninfected HEp-2 cells were used as standards for fluorescence background levels. Each experiment was performed in duplicate and repeated at least twice. The resulting inhibition curves were fitted in Igor Pro as described above.

SMILES	helicity [1] [%]	Kd [2] [nM]	EC50 [3] [nM]
CC[C@H](C)[C@H](NC(=O)[C@H](Cc1ccccc1)NC(=O)[C@H](C)NC(=O)[C@H](CC(C)C)NC(=O)[C@H](CO)NC(=O)[C@H](CCC(N)=O)NC(=O)[C@H](CC(N)=O)NC(=O)[C@@H](NC(=O)[C@]1(C)CCCC=CCCC[C@](C)(NC(=O)[C@H](CO)NC(=O)[C@@H](NC(=O)[C@H](CCC(=O)O)NC(C)=O)[C@@H](C)CC)C(=O)N[C@@H](C(C)C)C(=O)N[C@@H](CC(N)=O)C(=O)N[C@@H](CCC(=O)O)C(=O)N1)[C@@H](C)CC)C(=O)N[C@@H](CCCNC(=N)N)C(N)=O [Peptide 2a] (Ac-EIS[S5]VNE[S5]INQSLAFIR-NH2; staple 4-8)	5.2	405000 ± 121000	
CC[C@H](C)[C@H](NC(=O)[C@H](CCC(=O)O)NC(C)=O)C(=O)N[C@@H](CO)C(=O)N[C@@H](CCC(N)=O)C(=O)N[C@H](C(=O)N[C@@H](CC(N)=O)C(=O)N[C@@H](CCC(=O)O)C(=O)N[C@@H](CCCCN)C(=O)N[C@H](C(=O)N[C@]1(C)CCCCCCC=CCCC[C@@](C)(C(N)=O)NC(=O)[C@H]([C@@H](C)CC)NC(=O)[C@H](Cc2ccccc2)NC(=O)[C@H](C)NC(=O)[C@H](CC(C)C)NC(=O)[C@H](CO)NC(=O)[C@H](CCC(N)=O)NC1=O)[C@@H](C)CC)C(C)C [Peptide 2f] (Ac-EISQVNEKI[R8]QSLAFI[S5]-NH2; staple 10-17)	15.7	363000 ± 238000	
CC[C@H](C)[C@H](NC(=O)[C@H](Cc1ccccc1)NC(=O)[C@H](C)NC(=O)[C@H](CC(C)C)NC(=O)[C@H](CO)NC(=O)[C@H](CCC(N)=O)NC(=O)[C@H](CCC(=O)O)NC(C)=O)C(=O)N[C@@]1(C)CCCC=CCCC[C@@](C)(C(=O)N[C@@H](CC(C)C)C(=O)N[C@@H](CC(C)C)C(=O)N[C@@H](Cc2c[nH]cn2)C(=O)N[C@@H](CC(N)=O)C(=O)N[C@H](C(N)=O)C(C)C)NC(=O)[C@H](CC(=O)O)NC(=O)[C@H](CO)NC(=O)[C@H](CCCCN)NC1=O [Peptide 3b] (Ac-EQSLAFI[S5]KSD[S5]LLHNV-NH2; staple 8-12)	23	55900 ± 4000	
CC[C@H](C)[C@@H]1NC(=O)[C@H](Cc2ccccc2)NC(=O)[C@](C)(NC(=O)[C@H](CC(C)C)NC(=O)[C@H](CO)NC(=O)[C@H](CCC(N)=O)NC(=O)[C@H](CCC(=O)O)NC(C)=O)CCCCCCC=CCCC[C@@](C)(C(=O)N[C@@H](CC(C)C)C(=O)N[C@@H](CC(C)C)C(=O)N[C@@H](Cc2c[nH]cn2)C(=O)N[C@@H](CC(N)=O)C(=O)N[C@H](C(N)=O)C(C)C)NC(=O)[C@H](CC(=O)O)NC(=O)[C@H](CO)NC(=O)[C@H](CCCCN)NC(=O)[C@H](CCCNC(=N)N)NC1=O [Peptide 3e] (Ac-EQSL[R8]FIRKSD[S5]LLHNV-NH2; staple 5-12)	17.5	71000 ± 34000	
CC[C@H](C)[C@H](NC(=O)[C@H](CCCCN)NC(=O)[C@H](CCC(=O)O)NC(=O)[C@H](CC(N)=O)NC(=O)[C@@H](NC(=O)[C@H](CCC(N)=O)NC(=O)[C@H](CO)NC(=O)[C@@H](NC(=O)[C@H](CO)NC(=O)[C@H](C)NC(=O)[C@H](CC(=O)O)NC(=O)[C@H](Cc1ccccc1)NC(=O)[C@H](CCC(=O)O)NC(=O)[C@H](CC(=O)O)NC(=O)[C@H](CO)NC(=O)[C@@H]1CCCN1C(=O)[C@H](Cc1ccccc1)NC(=O)[C@H](CCC(=O)O)NC(C)=O)[C@@H](C)CC)C(C)C)C(=O)N[C@@H](CC(N)=O)C(N)=O [Peptide 1] (Ac-EFPSDEFDASISQVNEKIN-NH2)		2200 ± 500	
CC[C@H](C)[C@H](NC(=O)[C@H](CCCCN)NC(=O)[C@H](CCC(=O)O)NC(C)=O)C(=O)N[C@@]1(C)CCCC=CCCC[C@@](C)(C(=O)N[C@@H](Cc2ccccc2)C(=O)N[C@H](C(=O)N[C@@]2(C)CCCC=CCCC[C@@](C)(C(=O)N[C@@H](CC(C)C)C(=O)N[C@@H](CC(C)C)C(=O)N[C@@H](Cc3c[nH]cn3)C(=O)N[C@@H](CC(N)=O)C(=O)N[C@H](C(N)=O)C(C)C)NC(=O)[C@H](CC(=O)O)NC(=O)[C@H](CO)NC(=O)[C@H](CCCCN)NC2=O)[C@@H](C)CC)NC(=O)[C@H](CC(C)C)NC(=O)[C@H](CO)NC(=O)[C@H](C)NC1=O [Peptide Q501A] (Ac-EKI[S5]ASL[S5]FI[S5]KSD[S5]LLHNV-NH2; staple 4-8, 11-15)	12		280 ± 430
CC[C@H](C)[C@H](NC(=O)[C@H](C)NC(=O)[C@]1(C)CCCC=CCCC[C@](C)(NC(=O)[C@@H](NC(=O)[C@H](CCCCN)NC(=O)[C@H](CCC(=O)O)NC(C)=O)[C@@H](C)CC)C(=O)N[C@@H](CCC(N)=O)C(=O)N[C@@H](CO)C(=O)N[C@@H](CC(C)C)C(=O)N1)C(=O)N[C@@]1(C)CCCC=CCCC[C@@](C)(C(=O)N[C@@H](CC(C)C)C(=O)N[C@@H](CC(C)C)C(=O)N[C@@H](Cc2c[nH]cn2)C(=O)N[C@@H](CC(N)=O)C(=O)N[C@H](C(N)=O)C(C)C)NC(=O)[C@H](CC(=O)O)NC(=O)[C@H](CO)NC(=O)[C@H](CCCCN)NC1=O [Peptide F505A] (Ac-EKI[S5]QSL[S5]AI[S5]KSD[S5]LLHNV-NH2; staple 4-8, 11-15)	64		1390 ± 100
CC[C@H](C)[C@H](NC(=O)[C@H](CCCCN)NC(=O)[C@H](CCC(=O)O)NC(C)=O)C(=O)N[C@@]1(C)CCCC=CCCC[C@@](C)(C(=O)N[C@@H](Cc2ccccc2)C(=O)N[C@H](C(=O)N[C@@]2(C)CCCC=CCCC[C@@](C)(C(=O)N[C@@H](C)C(=O)N[C@@H](CC(C)C)C(=O)N[C@@H](Cc3c[nH]cn3)C(=O)N[C@@H](CC(N)=O)C(=O)N[C@H](C(N)=O)C(C)C)NC(=O)[C@H](CC(=O)O)NC(=O)[C@H](CO)NC(=O)[C@H](CCCCN)NC2=O)[C@@H](C)CC)NC(=O)[C@H](CC(C)C)NC(=O)[C@H](CO)NC(=O)[C@H](CCC(N)=O)NC1=O [Peptide L512A] (Ac-EKI[S5]QSL[S5]FI[S5]KSD[S5]ALHNV-NH2; staple 4-8, 11-15)	45		880 ± 60
CC[C@H](C)[C@H](NC(=O)[C@H](CCCCN)NC(=O)[C@H](C)NC(C)=O)C(=O)N[C@@]1(C)CCCC=CCCC[C@@](C)(C(=O)N[C@@H](Cc2ccccc2)C(=O)N[C@H](C(=O)N[C@@]2(C)CCCC=CCCC[C@@](C)(C(=O)N[C@@H](CC(C)C)C(=O)N[C@@H](CC(C)C)C(=O)N[C@@H](Cc3c[nH]cn3)C(=O)N[C@@H](CC(N)=O)C(=O)N[C@H](C(N)=O)C(C)C)NC(=O)[C@H](CC(=O)O)NC(=O)[C@H](CO)NC(=O)[C@H](CCCCN)NC2=O)[C@@H](C)CC)NC(=O)[C@H](CC(C)C)NC(=O)[C@H](CO)NC(=O)[C@H](CCC(N)=O)NC1=O [Peptide E497A] (Ac-AKI[S5]QSL[S5]FI[S5]KSD[S5]LLHNV-NH2; staple 4-8, 11-15)	38		1160 ± 80
